System: smell (isovaleric acid) of the socks
Experiment: Organoleptic evaluation of smell of socks after application onto a bare foot
Assay type: in vivo, human
Set-up: key: 5: Strong; 4: Slightly strong; 3: Moderate; 2: Slightly weak; 1: Weak; 0: Does not smell
Details: 2 g of 0.1% solution in ethanol on a bare foot; smell (isovaleric acid) of socks after 8 hours
Description: The present compounds 1 to 3 obtained in Examples 1 to 3, as well as commercial citral propylene glycol acetal (CITRAL PGA produced by Inoue Koryo Co., Ltd.) and citral hexylene glycol acetal (CITRAL HGA produced by Inoue Koryo Co., Ltd.) as comparative compounds, were used to prepare 0.1% solutions in ethanol respectively, and 2 g solution was applied onto a bare foot. 2 g ethanol (containing no test sample) was applied onto the other bare foot (blank), then socks were put on the feet respectively, and the extent of smell (isovaleric acid) of the socks after 8 hours was subjected to organoleptic evaluation by one skilled examiner in the following 6-level criteria.

Compound	Strength of Smell
CCCCCCCCOCC1COC(C=C(C)CCC=C(C)C)O1 (centres unmarked) [Present Compound 2, citral n-octyl glyceryl ether acetal]	2
CC(C)=CCC/C(C)=C/C1OCC(C)O1 (centres unmarked) [CITRAL PGA, citral propylene glycol acetal, reference compound]	5
CCCCC(CC)COCC1COC(C=C(C)CCC=C(C)C)O1 (centres unmarked) [Present Compound 3, citral 2-ethyl hexyl glyceryl ether acetal]	1
CC(C)=CCCC(C)=CC1OC(C)CC(C)(C)O1 (centres unmarked) [CITRAL HGA, citral hexylene glycol acetal, reference compound]	5
CCCCCOCC1COC(C=C(C)CCC=C(C)C)O1 (centres unmarked) [Present Compound 1, citral pentyl glyceryl ether acetal]	2
